Legend:
[1] = target: T1, Low molecular weight protein-tyrosine phosphatase A (Mycobacterium tuberculosis, UniProt P9WIA1); test: Inhibition of Mycobacterium tuberculosis PtpA
T1 sequence (P9WIA1 whole entry): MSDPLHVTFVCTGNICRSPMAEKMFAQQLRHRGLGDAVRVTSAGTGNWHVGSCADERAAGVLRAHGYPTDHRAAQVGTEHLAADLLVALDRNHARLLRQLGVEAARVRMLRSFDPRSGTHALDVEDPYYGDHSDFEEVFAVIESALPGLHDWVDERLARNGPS

[2] = target: T2, Receptor-type tyrosine-protein phosphatase C (Homo sapiens, UniProt P08575); test: Inhibition of human CD45
T2 sequence (P08575 whole entry): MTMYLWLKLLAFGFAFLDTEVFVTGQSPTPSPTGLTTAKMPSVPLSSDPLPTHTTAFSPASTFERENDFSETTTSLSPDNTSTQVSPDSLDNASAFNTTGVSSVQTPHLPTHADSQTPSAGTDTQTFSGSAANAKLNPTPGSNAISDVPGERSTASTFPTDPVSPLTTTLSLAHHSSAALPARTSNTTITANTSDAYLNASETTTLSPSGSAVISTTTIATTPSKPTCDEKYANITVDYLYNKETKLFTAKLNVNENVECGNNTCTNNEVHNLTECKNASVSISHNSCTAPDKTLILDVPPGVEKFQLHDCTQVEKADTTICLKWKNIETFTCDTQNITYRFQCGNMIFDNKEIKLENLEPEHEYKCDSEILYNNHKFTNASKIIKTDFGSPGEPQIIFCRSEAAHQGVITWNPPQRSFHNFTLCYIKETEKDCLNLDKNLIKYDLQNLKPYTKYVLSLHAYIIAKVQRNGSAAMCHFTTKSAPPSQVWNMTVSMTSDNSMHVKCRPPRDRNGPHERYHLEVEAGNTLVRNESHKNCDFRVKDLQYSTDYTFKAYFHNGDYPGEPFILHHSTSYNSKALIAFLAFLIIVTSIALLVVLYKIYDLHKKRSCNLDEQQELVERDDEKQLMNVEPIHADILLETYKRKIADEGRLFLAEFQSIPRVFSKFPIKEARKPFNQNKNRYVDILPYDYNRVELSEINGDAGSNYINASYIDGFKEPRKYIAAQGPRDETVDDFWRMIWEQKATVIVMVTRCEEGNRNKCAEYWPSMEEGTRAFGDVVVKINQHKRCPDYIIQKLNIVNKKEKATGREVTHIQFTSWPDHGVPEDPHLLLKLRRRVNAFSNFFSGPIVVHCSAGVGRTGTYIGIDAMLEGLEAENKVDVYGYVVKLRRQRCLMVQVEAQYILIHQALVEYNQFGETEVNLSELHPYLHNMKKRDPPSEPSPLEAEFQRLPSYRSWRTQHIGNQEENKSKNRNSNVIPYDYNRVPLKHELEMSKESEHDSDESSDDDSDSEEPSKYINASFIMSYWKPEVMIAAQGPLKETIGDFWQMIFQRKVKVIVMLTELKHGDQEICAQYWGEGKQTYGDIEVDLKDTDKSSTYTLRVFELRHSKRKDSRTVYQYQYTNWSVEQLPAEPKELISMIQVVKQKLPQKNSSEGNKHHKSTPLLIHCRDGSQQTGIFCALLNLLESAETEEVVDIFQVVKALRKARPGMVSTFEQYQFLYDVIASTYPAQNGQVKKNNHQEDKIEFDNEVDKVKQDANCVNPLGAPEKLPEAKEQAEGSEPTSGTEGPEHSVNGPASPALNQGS

[3] = target: T3, Low molecular weight phosphotyrosine protein phosphatase (Homo sapiens, UniProt P24666); test: Inhibition of human HCPTPA
T3 sequence (P24666 whole entry): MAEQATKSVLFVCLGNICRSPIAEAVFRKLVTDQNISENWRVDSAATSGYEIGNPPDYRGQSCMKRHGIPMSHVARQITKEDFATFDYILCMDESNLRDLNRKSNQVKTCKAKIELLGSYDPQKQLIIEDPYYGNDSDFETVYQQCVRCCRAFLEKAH

[4] = target: Receptor-type tyrosine-protein phosphatase F (Homo sapiens, UniProt P10586); test: Inhibition of human LAR
Receptor-type tyrosine-protein phosphatase F, sequence (P10586 whole entry): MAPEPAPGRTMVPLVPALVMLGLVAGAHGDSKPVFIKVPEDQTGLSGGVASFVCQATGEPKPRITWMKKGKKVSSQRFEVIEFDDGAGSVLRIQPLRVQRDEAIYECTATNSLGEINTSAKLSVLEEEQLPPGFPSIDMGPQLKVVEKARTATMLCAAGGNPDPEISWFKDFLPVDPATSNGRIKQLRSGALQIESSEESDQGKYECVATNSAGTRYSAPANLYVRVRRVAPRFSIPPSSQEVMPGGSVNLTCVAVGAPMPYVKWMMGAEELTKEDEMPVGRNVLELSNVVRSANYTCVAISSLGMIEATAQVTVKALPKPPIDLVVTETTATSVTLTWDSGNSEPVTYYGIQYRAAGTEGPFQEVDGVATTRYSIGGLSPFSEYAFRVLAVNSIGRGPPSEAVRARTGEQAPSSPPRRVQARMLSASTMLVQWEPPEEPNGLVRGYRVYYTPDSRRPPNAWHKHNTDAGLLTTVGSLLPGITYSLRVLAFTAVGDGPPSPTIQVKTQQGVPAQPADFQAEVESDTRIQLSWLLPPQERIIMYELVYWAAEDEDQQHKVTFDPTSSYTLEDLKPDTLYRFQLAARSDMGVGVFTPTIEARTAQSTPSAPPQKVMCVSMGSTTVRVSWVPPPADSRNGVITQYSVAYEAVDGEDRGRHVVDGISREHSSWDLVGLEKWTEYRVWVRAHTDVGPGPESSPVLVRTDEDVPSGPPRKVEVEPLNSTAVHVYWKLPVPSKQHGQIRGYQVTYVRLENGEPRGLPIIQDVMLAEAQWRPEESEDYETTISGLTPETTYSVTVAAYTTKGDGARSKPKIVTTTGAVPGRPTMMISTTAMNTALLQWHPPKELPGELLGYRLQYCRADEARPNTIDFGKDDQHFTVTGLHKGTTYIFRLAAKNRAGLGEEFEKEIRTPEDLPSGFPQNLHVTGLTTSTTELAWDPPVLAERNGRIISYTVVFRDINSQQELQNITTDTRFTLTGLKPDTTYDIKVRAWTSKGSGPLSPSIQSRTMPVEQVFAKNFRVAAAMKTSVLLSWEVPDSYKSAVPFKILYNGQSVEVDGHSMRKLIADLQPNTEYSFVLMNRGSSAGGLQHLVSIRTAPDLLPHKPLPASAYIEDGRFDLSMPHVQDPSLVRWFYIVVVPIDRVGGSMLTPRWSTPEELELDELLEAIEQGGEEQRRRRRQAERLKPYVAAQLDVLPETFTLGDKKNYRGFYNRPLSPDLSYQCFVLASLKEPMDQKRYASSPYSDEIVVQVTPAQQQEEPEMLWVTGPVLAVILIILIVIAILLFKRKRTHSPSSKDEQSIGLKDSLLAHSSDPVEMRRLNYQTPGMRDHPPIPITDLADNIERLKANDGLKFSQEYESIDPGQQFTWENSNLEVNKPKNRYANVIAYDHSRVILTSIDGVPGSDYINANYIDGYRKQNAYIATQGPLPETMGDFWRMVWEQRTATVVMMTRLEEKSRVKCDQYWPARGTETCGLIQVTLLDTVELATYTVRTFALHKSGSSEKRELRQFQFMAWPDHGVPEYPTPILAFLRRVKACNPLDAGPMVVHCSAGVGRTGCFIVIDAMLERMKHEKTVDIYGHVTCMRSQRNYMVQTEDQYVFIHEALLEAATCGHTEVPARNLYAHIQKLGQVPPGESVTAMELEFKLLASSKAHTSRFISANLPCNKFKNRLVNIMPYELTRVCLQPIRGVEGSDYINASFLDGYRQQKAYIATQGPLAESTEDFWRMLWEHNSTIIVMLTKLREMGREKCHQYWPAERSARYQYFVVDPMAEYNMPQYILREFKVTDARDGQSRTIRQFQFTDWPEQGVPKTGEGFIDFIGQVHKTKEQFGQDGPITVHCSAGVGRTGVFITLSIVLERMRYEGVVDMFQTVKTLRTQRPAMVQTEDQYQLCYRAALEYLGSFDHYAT

[5] = target: T4, Tyrosine-protein phosphatase non-receptor type 1 (Homo sapiens, UniProt P18031); test: Inhibition of human PTP1B
T4 sequence (P18031 whole entry): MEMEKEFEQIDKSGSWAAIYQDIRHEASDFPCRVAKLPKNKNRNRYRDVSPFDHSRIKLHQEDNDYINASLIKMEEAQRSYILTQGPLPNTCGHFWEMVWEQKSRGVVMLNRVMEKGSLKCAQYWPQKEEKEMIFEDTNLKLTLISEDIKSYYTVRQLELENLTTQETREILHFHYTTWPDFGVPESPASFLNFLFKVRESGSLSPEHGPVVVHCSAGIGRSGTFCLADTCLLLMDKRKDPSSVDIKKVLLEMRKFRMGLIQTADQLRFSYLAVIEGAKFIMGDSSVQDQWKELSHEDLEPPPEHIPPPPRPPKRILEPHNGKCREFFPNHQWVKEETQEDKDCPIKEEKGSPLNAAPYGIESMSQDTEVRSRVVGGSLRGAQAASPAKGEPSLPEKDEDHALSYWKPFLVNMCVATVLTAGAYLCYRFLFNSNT

[6] = target: Dual specificity protein phosphatase 3 (Homo sapiens, UniProt P51452); test: Inhibition of human VHR
Dual specificity protein phosphatase 3, sequence (P51452 whole entry): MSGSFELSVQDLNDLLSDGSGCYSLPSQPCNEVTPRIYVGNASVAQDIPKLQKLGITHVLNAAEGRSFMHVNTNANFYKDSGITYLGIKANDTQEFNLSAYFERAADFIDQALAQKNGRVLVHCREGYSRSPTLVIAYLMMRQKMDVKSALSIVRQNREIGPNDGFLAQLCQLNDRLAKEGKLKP

[7] = target: T5, Tyrosine-protein phosphatase non-receptor type 2 (Homo sapiens, UniProt P17706); test: Inhibition of human TCPTP
T5 sequence (P17706 whole entry): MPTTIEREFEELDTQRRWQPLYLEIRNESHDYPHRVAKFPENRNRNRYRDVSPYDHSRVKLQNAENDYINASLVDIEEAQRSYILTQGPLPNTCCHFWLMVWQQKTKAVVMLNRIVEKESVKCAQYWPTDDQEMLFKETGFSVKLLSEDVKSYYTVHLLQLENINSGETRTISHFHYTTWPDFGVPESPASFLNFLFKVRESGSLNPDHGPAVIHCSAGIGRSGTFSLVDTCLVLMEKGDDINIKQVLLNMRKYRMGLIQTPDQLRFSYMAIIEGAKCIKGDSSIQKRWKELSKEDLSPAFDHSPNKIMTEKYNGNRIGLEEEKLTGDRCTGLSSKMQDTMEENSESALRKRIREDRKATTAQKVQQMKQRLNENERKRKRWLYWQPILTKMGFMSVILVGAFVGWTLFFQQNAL

SMILES	Ki ([1]; read-out: Ki)	further results
O=P(O)(O)C(F)(F)c1ccc(Br)cc1	92.3 µM	
CC(C)NC(=O)c1ccc(C(F)(F)P(=O)(O)O)cc1	> 100 µM	
O=C(Nc1ccccc1C(F)(F)F)c1ccc(C(F)(F)P(=O)(O)O)cc1	54.8 µM	
O=C(Nc1ccc(F)cc1)c1ccc(C(F)(F)P(=O)(O)O)cc1	22.7 µM	
CN(C(=O)c1ccc(C(F)(F)P(=O)(O)O)cc1)c1ccccc1	> 100 µM	
O=P(O)(O)C(F)(F)c1ccc(CNc2ccccc2)cc1	> 100 µM	
O=C(Nc1ccc(Cl)c(C(F)(F)F)c1)c1ccc(C(F)(F)P(=O)(O)O)cc1	6 µM	
O=C(Nc1ccc(Br)c(C(F)(F)F)c1)c1ccc(C(F)(F)P(=O)(O)O)cc1	4.9 µM	
O=C(Nc1ccc(C(F)(F)P(=O)(O)O)cc1)c1ccccc1	65.5 µM	
O=C(Nc1ccccc1)c1cccc(C(F)(F)P(=O)(O)O)c1	> 100 µM	
O=P(O)(O)C(F)(F)c1ccc2c(cnn2Cc2ccccc2)c1	> 100 µM	
O=P(O)(O)C(F)(F)c1ccc2nn(Cc3ccccc3)cc2c1	84.4 µM	
CCN1CCC(NC(=O)c2ccc(C(F)(F)P(=O)(O)O)cc2)CC1	> 100 µM	
O=P(O)(O)C(F)(F)c1ccc(COc2ccccc2)cc1	> 100 µM	
CNC(=O)c1ccc(C(F)(F)P(=O)(O)O)cc1	> 100 µM	
O=C(NCC1CCCC1)c1ccc(C(F)(F)P(=O)(O)O)cc1	> 100 µM	
O=C(NCc1ccccc1)c1ccc(C(F)(F)P(=O)(O)O)cc1	43.1 µM	
O=C(Nc1nccs1)c1ccc(C(F)(F)P(=O)(O)O)cc1	33 µM	
O=C(Nc1ccccc1)c1ccc(C(F)(F)P(=O)(O)O)cc1	24 µM	
O=C(Nc1ccccc1Br)c1ccc(C(F)(F)P(=O)(O)O)cc1	44.6 µM	
O=C(Nc1cccc(F)c1)c1ccc(C(F)(F)P(=O)(O)O)cc1	41.8 µM	
O=C(Nc1cccc(Cl)c1)c1ccc(C(F)(F)P(=O)(O)O)cc1	34.9 µM	

SMILES	Ki ([1]; read-out: Ki)	further results
O=C(Nc1cccc(Br)c1)c1ccc(C(F)(F)P(=O)(O)O)cc1	18.2 µM	
O=C(Nc1cccc(C(F)(F)F)c1)c1ccc(C(F)(F)P(=O)(O)O)cc1	10.7 µM	
O=C(Nc1ccc(C(F)(F)F)cc1)c1ccc(C(F)(F)P(=O)(O)O)cc1	18.5 µM	
O=C(Nc1ccc(Cl)cc1)c1ccc(C(F)(F)P(=O)(O)O)cc1	16.8 µM	
O=C(Nc1ccc(Br)cc1)c1ccc(C(F)(F)P(=O)(O)O)cc1	10.3 µM	
O=C(Nc1ccc(F)c(C(F)(F)F)c1)c1ccc(C(F)(F)P(=O)(O)O)cc1	11.4 µM	
O=C(O)c1ccc(C(F)(F)P(=O)(O)O)cc1	> 100 µM	
O=C(Cc1ccc(C(F)(F)P(=O)(O)O)cc1)Nc1ccccc1	> 100 µM	
O=C(Nc1cc(C(F)(F)F)cc(C(F)(F)F)c1)c1ccc(C(F)(F)P(=O)(O)O)cc1	3.3 µM	
O=C(Nc1cc(C(F)(F)F)c(Br)c(C(F)(F)F)c1)c1ccc(C(F)(F)P(=O)(O)O)cc1	1.4 µM	Ki [2]: > 100 µM; Ki [3]: 14.8 µM; Ki [4]: > 100 µM; Ki [5]: > 100 µM; Ki [6]: > 100 µM; Ki [7]: > 100 µM
O=[N+]([O-])c1ccc(C(F)(F)P(=O)(O)O)cc1	75.4 µM	
Cn1cc(-c2ccc(C(F)(F)P(=O)(O)O)cc2)cn1	> 100 µM	
O=C(NC1CCCC1)c1ccc(C(F)(F)P(=O)(O)O)cc1	72.4 µM	
O=C(NCCc1ccccc1)c1ccc(C(F)(F)P(=O)(O)O)cc1	61.6 µM	
O=C(NCC(F)(F)F)c1ccc(C(F)(F)P(=O)(O)O)cc1	49.7 µM	
O=P(O)(O)C(F)(F)c1ccc(S(=O)(=O)Nc2ccccc2)cc1	> 100 µM	
O=C(Nc1ccc(C(F)(F)P(=O)(O)O)cc1)Nc1cc(C(F)(F)F)cc(C(F)(F)F)c1	3.1 µM	
O=C(Nc1nc2ccccc2[nH]1)c1ccc(C(F)(F)P(=O)(O)O)cc1		Ki [1]: ND(Insoluble)
O=C(Nc1ccccc1F)c1ccc(C(F)(F)P(=O)(O)O)cc1	> 100 µM	
O=C(Nc1ccccc1Cl)c1ccc(C(F)(F)P(=O)(O)O)cc1	68 µM	
O=P(O)(O)C(F)(F)c1ccc(-c2ccccc2)cc1	> 100 µM	

Reference: ChEMBL document CHEMBL1153717
